Measurements reported in US20160214983A1, “3,7-DIAZABICYCLO[3.3.1]NONANE CARBOXAMIDES AS ANTITHROMBOTIC AGENTS” (COUNCIL OF SCIENTIFIC & INDUSTRIAL RESEARCH, priority 2013, published 2016).

Assays:
human platelets [1] = assay: ADP induced platelet aggregation; type: cell-based; settings: up to 300 μM
human plasma = assay: Coagulability of blood by TT, PT and aPTT in human plasma
human platelets [2] = assay: U46619 (thromboxane receptor agonist) induced platelet aggregation; type: cell-based
[3] = test system: collagen plus epinephrine induced pulmonary thromboembolism; assay: Collagen-epinephrine induced pulmonary thromboembolism in mice; type: in vivo; settings: for inhibition in vivo at 30 µM, 30 µmol/kg: Mus musculus, po, 1 h, read-out: Protection (%)
Procedure: To assess the antithrombotic efficacy of compounds, mice were grouped into vehicle, aspirin and compound treated groups, and each group included ten animals. Pulmonary thromboembolism was induced by injecting a mixture of collagen (150 μg/ml) and adrenaline (50 μg/ml) into the tail vein to achieve final doses of collagen (1.5 mg/kg) and adrenaline (0.5 mg/kg) to induce hind limb paralysis or death.^11, 12 Number of test animals killed or paralyzed were evaluated (death/paralysis were employed as endpoint to evaluate antithrombotic agents). The percent protection was calculated by taking the ratio of number of test animals killed or paralyzed to that of total tested animals. Results have been reported as percentage protection, which represents protection against collagen and epinephrine induced thromboembolism and expressed as;
Percent Protection=[1−(Ptest/Pcontrol)]×100
Where, Ptest is the number of animals paralyzed/dead in test compound-treated group, and Pcontrol is the total number of animals paralyzed/dead in vehicle treated group. The percent protection refers to the number of animals in compound treated group that were prevented from paralysis/death.

human platelets [4] = assay: Arachidonic acid induced platelet aggregation (COX pathway); type: cell-based
human platelets [5] = assay: Collagen related peptide (CRP-XL) induced platelet aggregation; type: cell-based; settings: up to 300 μM
[6] = test system: ferric chloride induced arterial thrombosis; assay: FeCl3 induced carotid artery thrombosis in mice; type: in vivo; settings: for time to occlusion (TTO) of carotid artery: 1d 4 hr after oral administration, control 9.5±0.4 min
Procedure: Male Swiss albino mice were anesthetized byurethane (1.25 g/kg, i.p.). The carotid artery was carefully dissected and a pulsed Doppler Probe (LDF 100C, BioPac, USA) was placed around it to record the blood flow velocity and patency of the blood vessels. The carotid artery thrombosis was induced by FeCl3 as follows: a square (1×0.5 mm) of Whatman Chromatography paper was immersed in 10% FeCl3 solution for 5 min and placed on the carotid artery as described earlier. (Kurz K D, et al., Thromb Res 1990; 60(4):269-80; Surin W R et al J Pharmacol Toxicol Methods. 2010; 61(3):287-91) Thrombosis was monitored as the reduction in carotid artery blood flow. The time at which the blood-flow velocity was decreased to zero was recorded as the time to occlusion (TTO) of the carotid artery.

human platelets [7] = assay: Ristocetin induced platelet aggregation; type: cell-based; settings: up to 300 μM
human platelets [8] = assay: TRAP (thrombin mimetic SFLLRN) induced platelet aggregation; type: cell-based; settings: up to 300 μM
[9] = Tail bleeding time in mice
human platelets [10] = assay: Collagen induced platelet aggregation in human platelets (in vitro); type: cell-based; settings: Homo sapiens, Platelet, compound concentration 30 μM, n = 3

Compound: O=C([C@@H]1CCC(=O)N1Cc1ccccc1Br)N1CC2CC(CN(Cc3ccccc3)C2)C1 [Compound 1d, 5-(7-Benzyl-3,7-diaza-bicyclo[3.3.1]nonane-3-carbonyl)-1-(2-bromo-benzyl)-pyrrolidin-2-one]
- effect against ADP induced platelet aggregation (human platelets [1]): did not exhibit any significant effect
- coagulability of blood as assessed by TT, PT and aPTT (human plasma): did not alter the coagulability of blood
- inhibition at 30 µM (human platelets [2]): 75.5 ± 6%
- inhibition in vivo at 30 µM, 30 µmol/kg [3]: 40%
- protection in collagen-epinephrine induced pulmonary thromboembolism ([3]; mice, after 4 hours (p.o.), 30 μM/kg): ≤ 60%
- inhibition of arachidonic acid induced platelet aggregation (human platelets [4]; 30 μM): did not exhibit any inhibition
- attenuation of arachidonic acid induced platelet aggregation (human platelets [4]; 300 μM and 500 μM): ≤ 50%
- effect against CRP-XL induced platelet aggregation (human platelets [5]): did not exhibit any significant effect
- prolongation of time to occlusion vs control ([6]; 4 hr after oral administration): 2.2 fold
- time to occlusion (TTO) of carotid artery [6]: 19.2 ± 0.9 min
- effect against Ristocetin induced platelet aggregation (human platelets [7]): did not exhibit any significant effect
- effect against TRAP induced platelet aggregation (human platelets [8]): did not exhibit any significant effect
- effect on bleeding tendency ([9]; 1 hr after oral dosing, compared against aspirin and clopidogrel): mild effect
- bleeding time ([9]; after 4 hrs (oral), method doses aspirin 170 μM/kg, Clopidogrel 70 μM/kg): 8.4 min

Compound: COc1ccc(CN2C(=O)CC[C@H]2C(=O)N2CC3CC(CN(Cc4ccccc4)C3)C2)cc1 [Compound 1p]
- inhibition at 30 µM (human platelets [10]): 10 ± 4%
- inhibition in vivo at 30 µM, 30 µmol/kg [3]: 30%

Compound: COC(=O)[C@H](c1ccccc1Cl)N1CCc2sccc2C1 [Clopidogrel, reference compound]
- time to occlusion (TTO) of carotid artery [6]: ≤ 23 ± 0.9 min

Compound: Cc1ccc(CN2C(=O)CC[C@H]2C(=O)N2CC3CC(CN(Cc4ccccc4Br)C3)C2)cc1 [Compound 1u, (5S)-5-(2-bromobenzyl-3,7-diazabicyclo[3.3.1]nonane-3-carbonyl)-1-(4-methylbenzyl)pyrrolidin-2-one]
- inhibition at 30 µM (human platelets [10]): 57 to 86%
- inhibition in vivo at 30 µM, 30 µmol/kg [3]: 30%

Compound: Cc1ccc(CN2C(=O)CC[C@H]2C(=O)N2CC3CC(CN(C(=O)OC(C)(C)C)C3)C2)cc1 [Compound 1e, 7-[1-(4-Methyl-benzyl)-5-oxo-pyrrolidine-2-carbonyl]-3,7-diaza-bicyclo[3.3.1]nonane-3-carboxylic acid tert-butyl ester]
- inhibition at 30 µM (human platelets [10]): 25 ± 9%
- inhibition in vivo at 30 µM, 30 µmol/kg [3]: 40%

Compound: Cc1ccc(CN2C(=O)CC[C@H]2C(=O)N2CC3CC(CN(Cc4ccccc4)C3)C2)cc1 [Compound 1f, 5-(7-Benzyl-3,7-diaza-bicyclo[3.3.1]nonane-3-carbonyl)-1-(4-methyl-benzyl)-pyrrolidin-2-one]
- inhibition at 30 µM (human platelets [10]): 7 ± 7%
- inhibition in vivo at 30 µM, 30 µmol/kg [3]: 25%
